Experimental data reported in ChEMBL document CHEMBL1201862, “PubChem BioAssay data set” (2004).
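In this assay, cells in 96-well plates receive the compound at five concentrations for 48 hours. Endpoints are linearly interpolated between the surrounding concentrations. The concentration for 50% growth inhibition is given as GI50.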 Calls of active or inactive are those of the source. Cut-off read from the data, not from the text of the source: active = GI50 up to about 1.1 µM and inactive = higher.

How the values were obtained:
Assay in all cases: DTP human tumour cell line panel, 48 h
MDA-N = tested on: MDA-N
SR = tested on: SR
PC-3 = tested on: PC-3
SK-MEL-5 = tested on: SK-MEL-5
M14 = tested on: M14
UACC-62 = tested on: UACC-62
SN12C = tested on: SN12C
SNB-75 = tested on: SNB-75
OVCAR-4 = tested on: OVCAR-4
OVCAR-8 = tested on: OVCAR-8
SF-295 = tested on: SF-295
EKVX = tested on: EKVX
IGROV-1 = tested on: IGROV-1
U-251 = tested on: U-251
OVCAR-3 = tested on: OVCAR-3
MDA-MB-435 = tested on: MDA-MB-435
HCT-116 = tested on: HCT-116
HOP-62 = tested on: HOP-62
SF-268 = tested on: SF-268
SF-539 = tested on: SF-539
RPMI-8226 = tested on: RPMI-8226
SW-620 = tested on: SW-620
K562 = tested on: K562
HT-29 = tested on: HT-29
NCI-H522 = tested on: NCI-H522
NCI-H460 = tested on: NCI-H460
HOP-92 = tested on: HOP-92
SK-MEL-2 = tested on: SK-MEL-2
BT-549 = tested on: BT-549
Hs-578T = tested on: Hs-578T
MCF7 = tested on: MCF7
SNB-19 = tested on: SNB-19
UO-31 = tested on: UO-31
ACHN = tested on: ACHN
MDA-MB-231 = tested on: MDA-MB-231
T47D = tested on: T47D
OVCAR-5 = tested on: OVCAR-5
SK-MEL-28 = tested on: SK-MEL-28
NCI/ADR-RES = tested on: NCI/ADR-RES
SK-OV-3 = tested on: SK-OV-3
KM12 = tested on: KM12
NCI-H226 = tested on: NCI-H226
TK-10 = tested on: TK-10
CAKI-1 = tested on: CAKI-1
A498 = tested on: A498
COLO 205 = tested on: COLO 205
HCC 2998 = tested on: HCC 2998
UACC-257 = tested on: UACC-257
A549 = tested on: A549
Malme-3M = tested on: Malme-3M
NCI-H23 = tested on: NCI-H23
DU-145 = tested on: DU-145
HCT-15 = tested on: HCT-15
786-0 = tested on: 786-0
RXF 393 = tested on: RXF 393
HL-60 = tested on: HL-60
LOX IMVI = tested on: LOX IMVI
CCRF-CEM = tested on: CCRF-CEM
MOLT-4 = tested on: MOLT-4

Question: CCOC(=O)C(NC(=O)CC)(Nc1ccc(S(=O)(=O)Nc2nc(C)cc(C)n2)cc1)C(F)(F)F (stereo not drawn) was tested. Which GI50 (MDA-N) did it give?
Answer: > 100 µM (inactive)

Question: What about the GI50 (SR) of the same molecule?
Answer: > 100 µM (inactive)

Question: And the GI50 (PC-3)?
Answer: > 100 µM (inactive)

Question: What about the GI50 (SK-MEL-5) of the same molecule?
Answer: > 100 µM (inactive)

Question: What about the GI50 (M14) of the same molecule?
Answer: > 100 µM (inactive)

Question: What about the GI50 (UACC-62) of the same molecule?
Answer: > 100 µM (inactive)

Question: And the GI50 (SN12C)?
Answer: > 100 µM (inactive)

Question: And the GI50 (SNB-75)?
Answer: > 100 µM (inactive)

Question: And the GI50 (OVCAR-4)?
Answer: > 100 µM (inactive)

Question: What about the GI50 (OVCAR-8) of the same molecule?
Answer: > 100 µM (inactive)

Question: What about the GI50 (SF-295) of the same molecule?
Answer: > 100 µM (inactive)

Question: What about the GI50 (EKVX) of the same molecule?
Answer: > 100 µM (inactive)

Question: What about the GI50 (IGROV-1) of the same molecule?
Answer: > 100 µM (inactive)

Question: And the GI50 (U-251)?
Answer: > 100 µM (inactive)

Question: What about the GI50 (OVCAR-3) of the same molecule?
Answer: > 100 µM (inactive)

Question: What about the GI50 (MDA-MB-435) of the same molecule?
Answer: > 100 µM (inactive)

Question: And the GI50 (HCT-116)?
Answer: > 100 µM (inactive)

Question: What about the GI50 (HOP-62) of the same molecule?
Answer: > 100 µM (inactive)

Question: And the GI50 (SF-268)?
Answer: > 100 µM (inactive)

Question: What about the GI50 (SF-539) of the same molecule?
Answer: > 100 µM (inactive)

Question: What about the GI50 (RPMI-8226) of the same molecule?
Answer: > 100 µM (inactive)

Question: What about the GI50 (SW-620) of the same molecule?
Answer: > 100 µM (inactive)

Question: And the GI50 (K562)?
Answer: > 100 µM (inactive)

Question: What about the GI50 (HT-29) of the same molecule?
Answer: > 100 µM (inactive)

Question: And the GI50 (NCI-H522)?
Answer: 31.6 µM (inactive)

Question: What about the GI50 (NCI-H460) of the same molecule?
Answer: > 100 µM (inactive)

Question: And the GI50 (HOP-92)?
Answer: > 100 µM (inactive)

Question: And the GI50 (SK-MEL-2)?
Answer: > 100 µM (inactive)

Question: And the GI50 (BT-549)?
Answer: > 100 µM (inactive)

Question: And the GI50 (Hs-578T)?
Answer: > 100 µM (inactive)

Question: What about the GI50 (MCF7) of the same molecule?
Answer: 36.6 µM (inactive)

Question: And the GI50 (SNB-19)?
Answer: > 100 µM (inactive)

Question: And the GI50 (UO-31)?
Answer: > 100 µM (inactive)

Question: What about the GI50 (ACHN) of the same molecule?
Answer: > 100 µM (inactive)

Question: What about the GI50 (MDA-MB-231) of the same molecule?
Answer: > 100 µM (inactive)

Question: And the GI50 (T47D)?
Answer: > 100 µM (inactive)

Question: What about the GI50 (OVCAR-5) of the same molecule?
Answer: > 100 µM (inactive)

Question: And the GI50 (SK-MEL-28)?
Answer: > 100 µM (inactive)

Question: What about the GI50 (NCI/ADR-RES) of the same molecule?
Answer: > 100 µM (inactive)

Question: And the GI50 (SK-OV-3)?
Answer: > 100 µM (inactive)

Question: What about the GI50 (KM12) of the same molecule?
Answer: > 100 µM (inactive)

Question: And the GI50 (NCI-H226)?
Answer: > 100 µM (inactive)

Question: What about the GI50 (TK-10) of the same molecule?
Answer: > 100 µM (inactive)

Question: What about the GI50 (CAKI-1) of the same molecule?
Answer: > 100 µM (inactive)

Question: And the GI50 (A498)?
Answer: > 100 µM (inactive)

Question: And the GI50 (COLO 205)?
Answer: > 100 µM (inactive)

Question: What about the GI50 (HCC 2998) of the same molecule?
Answer: > 100 µM (inactive)

Question: What about the GI50 (UACC-257) of the same molecule?
Answer: > 100 µM (inactive)

Question: And the GI50 (A549)?
Answer: > 100 µM (inactive)

Question: What about the GI50 (Malme-3M) of the same molecule?
Answer: > 100 µM (inactive)

Question: And the GI50 (NCI-H23)?
Answer: > 100 µM (inactive)

Question: What about the GI50 (DU-145) of the same molecule?
Answer: > 100 µM (inactive)

Question: And the GI50 (HCT-15)?
Answer: > 100 µM

Question: What about the GI50 (786-0) of the same molecule?
Answer: > 100 µM (inactive)

Question: What about the GI50 (RXF 393) of the same molecule?
Answer: > 100 µM (inactive)

Question: And the GI50 (HL-60)?
Answer: > 100 µM (inactive)

Question: And the GI50 (LOX IMVI)?
Answer: > 100 µM (inactive)

Question: What about the GI50 (CCRF-CEM) of the same molecule?
Answer: > 100 µM (inactive)

Question: What about the GI50 (MOLT-4) of the same molecule?
Answer: > 100 µM (inactive)

Question: What does the source list for CSc1ccccc1P(CCP(c1ccccc1SC)c1ccccc1SC)c1ccccc1SC?
Answer: GI50 (MDA-N): 50.5 µM (inactive); GI50 (SR): 1.11 µM (active); GI50 (PC-3): 0.912 µM (active); GI50 (SK-MEL-5): 55.5 µM (inactive); GI50 (M14): 24.3 µM (inactive); GI50 (UACC-62): > 86.5 µM (inactive); GI50 (SN12C): 38.3 µM (inactive); GI50 (SNB-75): 13 µM (inactive); GI50 (OVCAR-4): 14.3 µM (inactive); GI50 (OVCAR-8): 8.73 µM (inactive); GI50 (SF-295): 7.08 µM (inactive); GI50 (EKVX): 19.6 µM (inactive); GI50 (IGROV-1): 0.8 µM (active); GI50 (U-251): 4.2 µM (inactive); GI50 (OVCAR-3): 0.543 µM (active); GI50 (MDA-MB-435): 31.5 µM (inactive); GI50 (HCT-116): 0.413 µM (active); GI50 (HOP-62): 8.61 µM (inactive); GI50 (SF-268): 36.4 µM (inactive); GI50 (SF-539): 34.1 µM (inactive); GI50 (RPMI-8226): 4.47 µM (inactive); GI50 (SW-620): 16.7 µM (inactive); GI50 (K562): 1.67 µM (inactive); GI50 (HT-29): 1.28 µM (inactive); GI50 (NCI-H522): 28.1 µM (inactive); GI50 (NCI-H460): 3.13 µM (inactive); GI50 (HOP-92): 61.1 µM (inactive); GI50 (SK-MEL-2): 53.3 µM (inactive); GI50 (BT-549): 38.7 µM (inactive); GI50 (Hs-578T): 28.7 µM (inactive); GI50 (MCF7): 1.95 µM (inactive); GI50 (SNB-19): 35.4 µM (inactive); GI50 (UO-31): > 44.4 µM (inactive); GI50 (ACHN): 47.2 µM (inactive); GI50 (MDA-MB-231): 8.81 µM (inactive); GI50 (T47D): 12.4 µM (inactive); GI50 (OVCAR-5): 43.9 µM (inactive); GI50 (SK-MEL-28): 76.2 µM (inactive); GI50 (NCI/ADR-RES): > 93.1 µM (inactive); GI50 (SK-OV-3): 16.3 µM (inactive); GI50 (KM12): 18.6 µM (inactive); GI50 (NCI-H226): 10.4 µM (inactive); GI50 (TK-10): > 69 µM (inactive); GI50 (CAKI-1): > 84.5 µM (inactive); GI50 (A498): 40.4 µM (inactive); GI50 (COLO 205): 0.697 µM (active); GI50 (HCC 2998): 4.88 µM (inactive); GI50 (UACC-257): 13.5 µM (inactive); GI50 (A549): 3.96 µM (inactive); GI50 (Malme-3M): 29.9 µM (inactive); GI50 (NCI-H23): 1 µM (active); GI50 (DU-145): 54.5 µM (inactive); GI50 (HCT-15): > 67 µM; GI50 (786-0): 15.6 µM (inactive); GI50 (RXF 393): 30.8 µM (inactive); GI50 (HL-60): 0.4 µM (active); GI50 (LOX IMVI): 22.6 µM (inactive); GI50 (CCRF-CEM): 0.953 µM (active); GI50 (MOLT-4): 2.22 µM (inactive)
